This note sets out measurements from US6426355B1, “Heterocyclic carboxamide-containing thiourea inhibitors of herpes viruses containing phenylenediamine group” (American Home Products, priority 1998, dated 2002).

Each structure is given as a SMILES string. Values after ≈ are worked out from the molar mass of the structure shown.

In one experiment the test system is VZV strain Ellen. In words: VZV Antiviral (ELISA) assay. Type of experiment: cell-based. The conditions noted are these: for IC50: Human alphaherpesvirus 3, VZV strain Ellen in HFF cells, read-out: IC50 (ug/ml) VZV; for inhibition at 10 µg/mL: Human alphaherpesvirus 3, read-out: % inhibition 10 ug/ml VZV, at 10 ug/ml, VZV strain Ellen in HFF cells; for IC50 (ug/ml) VZV / % inhibition 10 ug/ml VZV: VZV strain Ellen in HFF cells; for % inhibition 10 ug/ml VZV: at 10 ug/ml. The method, boiled down: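 Antiviral IC50 is derived by comparing fluorescence with and without compound after a three-day culture of VZV-infected plus uninfected foreskin fibroblasts. Replication is quantified by ELISA against glycoprotein II, using a β-galactosidase secondary and methyl umbelliferyl-β-D-galactoside.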

Another experiment has as its system HSV-1. In words: HSV Antiviral (ELISA) assay. Type of experiment: cell-based. The conditions noted are these: for IC50: Human alphaherpesvirus 1, HSV-1 in Vero cells, read-out: IC50 (ug/ml) HSV; for IC50 (ug/ml) HSV: HSV-1 in Vero cells. The method, boiled down:
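Vero cells in DMEM/2% FBS pretreated with compound 30 min before HSV-1 infection (MOI 0.006), then ~24 h at 37 °C. Viral gD detected by ELISA with β-galactosidase secondary and 4-methylumbelliferyl-galactoside (ex 365/em 450 nm); IC50 from fluorescence versus untreated infected cells.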
For orientation: ELISA stands for enzyme-linked immunosorbent assay.

The test system of experiment [1] is HCMV recombinant mutant virus (RV145). In words: HCMV microtiter plate assay (beta-glucuronidase reporter). The conditions noted are these: for IC50: Human betaherpesvirus 5, Fibroblast, read-out: IC50 (ug/ml) HCMV; for IC50 (ug/ml) HCMV: HCMV in human foreskin fibroblasts. Type of experiment: cell-based, Human Cytomegalovirus. The method in brief: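 Human foreskin fibroblasts were infected with RV145 in the presence of inhibitor. β-glucuronidase under a viral promoter served as the replication marker. At 96 h post-infection, lysates in pH 7.0 phosphate with Triton X-100/sarkosyl were assayed colorimetrically or fluorometrically, and IC50 was estimated from varying inhibitor amounts.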

For `O=C(Nc1ccc(NC(=O)c2csnn2)cc1)Nc1cc(Cl)cc(Cl)c1` [Example 86, [1,2,3]Thiadiazole-4-carboxylic acid {4-[3-(3,5-dichloro-phenyl)-ureido]-phenyl}-amide], the results for the IC50 (with VZV strain Ellen; in the experiment with HSV-1; in experiment [1]) were greater than 10 µg/mL, greater than 10 µg/mL and 0.04 µg/mL (≈ 0.098 µM), respectively. The inhibition at 10 µg/mL in the experiment with VZV strain Ellen was determined as 32%.
As for `CN(C)CCSCC(=O)Nc1ccc(NC(=S)Nc2ccc(NC(=O)c3ccco3)cc2)cc1Cl` [Example 396], in the experiment with VZV strain Ellen, the “IC50 (ug/ml) VZV” value was greater than 10 µg/mL and the “% inhibition 10 ug/ml VZV” value was 26%. The “IC50 (ug/ml) HSV” value with HSV-1 is greater than 10 µg/mL. Moreover, in experiment [1], the “IC50 (ug/ml) HCMV” value is 0.7 µg/mL (≈ 1.32 µM).
On to `COc1cc(OC)c(NC(=S)Nc2ccc(NC(=O)c3ccc([N+](=O)[O-])o3)cc2)cc1Cl` [Example 161], for which, in the experiment with VZV strain Ellen, the “IC50 (ug/ml) VZV” value stood at 5 µg/mL (≈ 10.5 µM) and the “% inhibition 10 ug/ml VZV” value is 113%. Further, in the experiment on HSV-1, the “IC50 (ug/ml) HSV” value is 3 µg/mL (≈ 6.29 µM). In addition, the “IC50 (ug/ml) HCMV” value in experiment [1] was greater than 10 µg/mL.
For `O=C(Nc1ccc(NC(=S)Nc2ccc(Cl)c(C(F)(F)F)c2)cc1)c1csnn1` [Example 200] the same measures were greater than 15 µg/mL, 55%, greater than 10 µg/mL and 0.02 µg/mL (≈ 0.0437 µM).
With `O=C(Nc1ccc(NC(=S)Nc2cccc(F)c2)cc1)c1ccco1` [Example 1007, Furan-2-carboxylic acid {4-[3-(3-fluoro-phenyl)-thioureido]-phenyl} -amide], the IC50 with VZV strain Ellen is greater than 10 µg/mL; in the experiment on HSV-1, greater than 10 µg/mL; in experiment [1] it was 0.11 µg/mL (≈ 0.31 µM). In addition, in the experiment with VZV strain Ellen, the inhibition at 10 µg/mL stood at 18%.
On to `CN1CCC(N(C)c2ccc(NC(=S)Nc3ccc(NC(=O)c4ccco4)cc3)cc2Cl)CC1` [Example 344], for which, in the experiment on VZV strain Ellen, the “IC50 (ug/ml) VZV” value came to 7 µg/mL (≈ 14.1 µM) and the “% inhibition 10 ug/ml VZV” value is 72%. For the same compound, in the experiment on HSV-1, the “IC50 (ug/ml) HSV” value was found to be 4 µg/mL (≈ 8.03 µM). Moreover, the “IC50 (ug/ml) HCMV” value in experiment [1] is 0.25 µg/mL (≈ 0.502 µM).
In the same order, the values of `Nc1nccc(-c2ccc(NC(=S)Nc3ccc(NC(=O)c4csnn4)cc3)cc2Cl)n1` [Example 501] are greater than 10 µg/mL, 10%, greater than 10 µg/mL and 0.032 µg/mL (≈ 0.0663 µM).
In the same order, the values of `COc1cc(OC)c(NC(=S)Nc2ccc(NC(=O)c3nccc4ccccc34)cc2)cc1Cl` [Example 158] are greater than 15 µg/mL, 52%, 4 µg/mL (≈ 8.11 µM) and greater than 10 µg/mL.
Consider `O=C(Nc1ccc(NC(=S)NCCc2cccc(F)c2)cc1)c1csnn1` [Example 554], for which, in the experiment on VZV strain Ellen, the “IC50 (ug/ml) VZV” value stood at 1.5 µg/mL (≈ 3.74 µM). In the experiment on HSV-1, the “IC50 (ug/ml) HSV” value is greater than 10 µg/mL. In experiment [1], the “IC50 (ug/ml) HCMV” value was found to be 0.01 µg/mL (≈ 0.0249 µM).
With `CC(CCc1ccccc1)NC(=S)Nc1ccc(NC(=O)c2csnn2)cc1` (centres unmarked) [Example 646], in the experiment with VZV strain Ellen, the “IC50 (ug/ml) VZV” value was 2.5 µg/mL (≈ 6.07 µM). For the same compound, in the experiment with HSV-1, the “IC50 (ug/ml) HSV” value was greater than 10 µg/mL. The “IC50 (ug/ml) HCMV” value in experiment [1] was found to be 0.03 µg/mL (≈ 0.0729 µM).
In the case of `Cc1cc(NC(=S)NC(C)c2ccc(F)cc2)ccc1NC(=O)c1cc2ccccc2cn1` (centres unmarked) [Example 1126, Isoquinoline-3-carboxylic acid (4-{3-[1-(4-fluoro-phenyl)-ethyl]-thioureido}-2-methyl-phenyl)-amide], the values for the IC50 (in the experiment on VZV strain Ellen; with HSV-1; in experiment [1]) were 0.7 µg/mL (≈ 1.53 µM), greater than 10 µg/mL and 5.8 µg/mL (≈ 12.6 µM), respectively.
On to `O=C(Nc1ccc(NC(=S)NCCOc2ccccc2)cc1)c1ccco1` [Example 626], for which the “IC50 (ug/ml) VZV” value with VZV strain Ellen was greater than 10 µg/mL. Further, the “IC50 (ug/ml) HSV” value in the experiment with HSV-1 came to 10 µg/mL (≈ 26.2 µM). Also, the “IC50 (ug/ml) HCMV” value in experiment [1] was determined as 0.07 µg/mL (≈ 0.184 µM).
In the same order, the values of `CC(C)CN(C)c1cc(NC(=S)Nc2ccc(NC(=O)c3csnn3)cc2)cc(C(F)(F)F)c1` [Example 594] are greater than 10 µg/mL, greater than 10 µg/mL and 0.011 µg/mL (≈ 0.0216 µM).
Consider `CC(=O)Nc1ccc(NC(=S)Nc2cc(Cl)ccc2Cl)cc1` [Example 980, N-{4-[3-(2,5-Dichloro-phenyl)-thioureido]-phenyl} -acetamide], for which, in the experiment on VZV strain Ellen, the inhibition at 10 µg/mL worked out at 56%. Also, the IC50 with HSV-1 was greater than 10 µg/mL; in experiment [1], 0.05 µg/mL (≈ 0.141 µM).
Consider `O=C(Nc1ccc(NC(=S)Nc2ccc(NC(=O)c3ccco3)cc2)cc1Cl)OCCN1CCCCC1` [Example 439], for which, in the experiment with VZV strain Ellen, the “IC50 (ug/ml) VZV” value is greater than 10 µg/mL and the “% inhibition 10 ug/ml VZV” value is reported as 46%. For the same compound, the “IC50 (ug/ml) HSV” value with HSV-1 stood at 9 µg/mL (≈ 16.6 µM). For the same compound, in experiment [1], the “IC50 (ug/ml) HCMV” value stood at 0.5 µg/mL (≈ 0.922 µM).
For the compound `O=C(Nc1ccc(NC(=S)Nc2cc(Cl)c(Cl)c(Cl)c2)cc1)c1csnn1` [Example 989, [1,2,3]Thiadiazole-4-carboxylic acid {4-[3-(3,4,5-trichloro-phenyl)-thioureido]-phenyl}-amide], the IC50 was greater than 10 µg/mL in the experiment with VZV strain Ellen, greater than 10 µg/mL with HSV-1 and 0.016 µg/mL (≈ 0.0349 µM) in experiment [1]. In addition, the inhibition at 10 µg/mL in the experiment on VZV strain Ellen was found to be 21%.
Turning to `O=C(Nc1ccc(NC(=S)Nc2cccc(C(F)(F)F)c2)cc1)c1ccco1` [Example 431], the “IC50 (ug/ml) VZV” value with VZV strain Ellen is greater than 10 µg/mL. In addition, the “IC50 (ug/ml) HSV” value in the experiment with HSV-1 was greater than 10 µg/mL. For the same compound, in experiment [1], the “IC50 (ug/ml) HCMV” value came out at 0.06 µg/mL (≈ 0.148 µM).
Turning to `CC(C)c1nc(C(=O)Nc2ccc(NC(=S)Nc3cc(Cl)cc(Cl)c3)cc2)cs1` [Example 1131, 2-Isopropyl-thiazole-4-carboxylic acid {4-[3-(3,5-dichloro-phenyl)-thioureido]-phenyl}-amide], the IC50 in the experiment on VZV strain Ellen is 9 µg/mL (≈ 19.3 µM); in the experiment with HSV-1, 2.2 µg/mL (≈ 4.73 µM); in experiment [1] it was 1.5 µg/mL (≈ 3.22 µM).
`CN(C)c1ccc(NC(=S)Nc2ccc(NC(=O)c3ccccn3)cc2)cc1Cl` [Example 350]: in the experiment on VZV strain Ellen, the “IC50 (ug/ml) VZV” value was greater than 10 µg/mL and the “% inhibition 10 ug/ml VZV” value was 50%. The “IC50 (ug/ml) HSV” value in the experiment on HSV-1 is greater than 10 µg/mL. In experiment [1], the “IC50 (ug/ml) HCMV” value was 1 µg/mL (≈ 2.35 µM).
Turning to `CN(C)c1cc(Cl)cc(NC(=S)Nc2ccc(NC(=O)c3ccco3)cc2)c1` [Example 524], in the experiment with VZV strain Ellen, the “IC50 (ug/ml) VZV” value is 2 µg/mL (≈ 4.82 µM) and the “% inhibition 10 ug/ml VZV” value is 95%. In addition, the “IC50 (ug/ml) HSV” value with HSV-1 worked out at 4 µg/mL (≈ 9.64 µM). The “IC50 (ug/ml) HCMV” value in experiment [1] was 0.055 µg/mL (≈ 0.133 µM).
Regarding `CN1CCN(c2cc(NC(=S)Nc3ccc(NC(=O)c4csnn4)cc3)cc(C(F)(F)F)c2)CC1` [Example 558], in the experiment on VZV strain Ellen, the “IC50 (ug/ml) VZV” value was greater than 10 µg/mL. The “IC50 (ug/ml) HSV” value in the experiment with HSV-1 is 7 µg/mL (≈ 13.4 µM). Also, the “IC50 (ug/ml) HCMV” value in experiment [1] was determined as 0.05 µg/mL (≈ 0.0959 µM).
Turning to `CN(C)c1cccc(NC(=S)Nc2ccc(NC(=O)c3csnn3)cc2)c1` [Example 479], in the experiment on VZV strain Ellen, the “IC50 (ug/ml) VZV” value was greater than 10 µg/mL and the “% inhibition 10 ug/ml VZV” value is 30%. Moreover, the “IC50 (ug/ml) HSV” value with HSV-1 is greater than 10 µg/mL. For the same compound, the “IC50 (ug/ml) HCMV” value in experiment [1] stood at 0.1 µg/mL (≈ 0.251 µM).
Consider `Nc1ccc(Cl)cc1NC(=S)Nc1ccc(NC(=O)c2ccco2)cc1` [Example 440], for which, in the experiment on VZV strain Ellen, the “IC50 (ug/ml) VZV” value turned out to be 9 µg/mL (≈ 23.3 µM). In addition, the “IC50 (ug/ml) HSV” value with HSV-1 was 1 µg/mL (≈ 2.58 µM). Besides, the “IC50 (ug/ml) HCMV” value in experiment [1] worked out at 0.3 µg/mL (≈ 0.775 µM).
On to `Nc1cc(Cl)cc(NC(=S)Nc2ccc(NC(=O)c3csnn3)cc2)c1` [Example 466], for which, in the experiment with VZV strain Ellen, the “IC50 (ug/ml) VZV” value was greater than 10 µg/mL and the “% inhibition 10 ug/ml VZV” value worked out at 93%. The “IC50 (ug/ml) HSV” value in the experiment on HSV-1 was greater than 10 µg/mL. In addition, the “IC50 (ug/ml) HCMV” value in experiment [1] was determined as 0.011 µg/mL (≈ 0.0272 µM).
